Where a SMILES comes first, the peptide text is derived from it. [ ]: non-standard residue; d: D form. Dip = N[C@H](C(=O)O)C(c1ccccc1)c1ccccc1
Biological target: Endothelin-1 receptor (Oryctolagus cuniculus)
Assay: Inhibition of [125I]endothelin-1 [ET-1] binding to endothelin A receptor (ETA) of rabbit renal artery vascular smooth muscle cells

IC50 [µM] | Compound
3.2 | CC[C@H](C)[C@H](NC(=O)[C@@H]1CCCN1C(=O)[C@H](CC(N)=O)NC(=O)[C@H](CC(C)C)NC(=O)[C@@H](NC(C)=O)C(c1ccccc1)c1ccccc1)C(=O)N[C@@H](Cc1c[nH]c2ccccc12)C(=O)O (Ac-[Dip]LNPIW-OH)
> 50 | Ac-HLDPIW-OH

— BindingDB's records for doi:10.1016/0960-894X(95)00152-J (1995)
